Experimental data as given in patent publication US9834558B2, “Substituted bridged urea analogs as sirtuin modulators” (GLAXOSMITHKLINE LLC, priority 2013, dated 2017).
Where two headings read alike, the source gives them in different places.

Molecular target: T1, SIRT1 (Homo sapiens, UniProt Q96EB6)
T1 sequence (Q96EB6 1-747): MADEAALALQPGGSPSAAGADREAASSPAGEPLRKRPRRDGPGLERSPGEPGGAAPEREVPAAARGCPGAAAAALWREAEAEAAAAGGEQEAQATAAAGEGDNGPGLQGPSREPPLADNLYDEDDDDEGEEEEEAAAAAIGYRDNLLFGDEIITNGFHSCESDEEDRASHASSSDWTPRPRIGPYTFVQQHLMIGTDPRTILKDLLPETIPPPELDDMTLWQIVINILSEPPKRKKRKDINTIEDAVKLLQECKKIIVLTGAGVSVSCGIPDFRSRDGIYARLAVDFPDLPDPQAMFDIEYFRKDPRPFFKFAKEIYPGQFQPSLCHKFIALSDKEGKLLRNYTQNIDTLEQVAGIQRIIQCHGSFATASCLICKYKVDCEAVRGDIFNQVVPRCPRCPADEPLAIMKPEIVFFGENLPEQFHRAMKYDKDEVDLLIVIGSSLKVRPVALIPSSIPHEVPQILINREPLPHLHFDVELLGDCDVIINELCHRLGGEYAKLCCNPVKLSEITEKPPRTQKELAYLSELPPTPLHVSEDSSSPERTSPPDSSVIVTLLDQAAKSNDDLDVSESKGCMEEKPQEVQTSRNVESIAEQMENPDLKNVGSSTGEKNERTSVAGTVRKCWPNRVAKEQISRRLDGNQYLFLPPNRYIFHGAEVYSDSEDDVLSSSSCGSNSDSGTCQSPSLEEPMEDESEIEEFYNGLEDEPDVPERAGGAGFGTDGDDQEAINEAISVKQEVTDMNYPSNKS
Test: Trp mass spectrometry assay of SIRT1 activation
Type: biochemical
Conditions: for TRP Activity (EC1.5): EC1.5 = concentration that results in 150% activation of SIRT1
Outline: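 Activation read-out: mass-spec measurement of O-acetyl-ADP-ribose or deacetylated Trp peptide versus compound-free controls, giving EC1.5 and Percent Maximum Activation. Reactions ran 25 min at 25 °C, pH 7.5, with 120 μM βNAD+, 0.5 μM acetylated p53-derived peptide and 10 nM His-tagged SIRT1.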

[1] = Trp mass spectrometry assay, concentration of test compound giving 150% activation of SIRT1
[2] = Trp mass spectrometry assay, EC1.5 = concentration of test compound that results in 150% activation of SIRT1
[3] = concentration giving 150% activation of SIRT1, Trp peptide substrate
[4] = percent maximum fold activation of SIRT1, Trp peptide substrate, read-out: Tryp % Fold Act
[5] = Trp peptide assay, maximum activity relative to control (100%), read-out: TRP MAX RESP (percent maximum fold activation)
[6] = Trp peptide substrate, concentration giving 150% activation of SIRT1

`O=C(Nc1ccccn1)N1c2nc(-c3cncc(F)c3)ccc2N2CC[C@H]1C2` [Example 374] was tested, and the “Tryp AVG EC1.5 (μM)” value [1] was “B (B (EC1.5 1-25 μM))”.

For `O=C(NC1CC1)c1ccc2c(n1)N(C(=O)Nc1ccccn1)[C@H]1CCN2C1` [(9S)-5-N-cyclopropyl-8-N-(pyridin-2-yl)-1,6,8-triazatricyclo[7.2.1.0^{2,7}]dodeca-2(7),3,5-triene-5,8-dicarboxamide], the “TRP Activity (EC1.5)” value (Trp peptide assay) was “A (A (EC1.5<1 μM))” and the Emax (read-out: TRP MAX RESP (percent maximum fold activation)) was greater than 150%.

With `O=C(Nc1cncc(F)c1)N1c2nc(N3CC[C@H](F)C3)ccc2S(=O)(=O)N2CC[C@H]1C2` [Example 469] the “Tryp AVG EC1.5 (μM)” value [2] was “C (C (EC1.5>25 μM))”.

`O=C(Nc1ccccn1)N1c2nc(-c3cc(F)cc(F)c3)ccc2N2CC[C@H]1C2` [Example 344] was tested, and the “Tryp AVG EC1.5 (μM)” value [1] was “A (A (EC1.5<1 μM))”.

`O=C(Nc1ccccn1)N1c2nc(-c3cccc(Cl)c3)ccc2N2CCC[C@H]1C2` [Example 387] was tested, and the “Tryp AVG EC1.5 (μM)” value [1] was “A (A (EC1.5<1 μM))”.

In the case of `[N-]=[N+]=Nc1cc(N=[N+]=[N-])cc(-c2ccc3c(n2)N(C(=O)Nc2ccc(F)cn2)[C@H]2CCN3C2)c1` [Example 806], the “Tryp AVG EC1.5 (μM)” value [3] is reported as “A (A (EC1.5<1 μM))” and the Emax [4] is reported as greater than 150%.

In the case of `Cc1cc(-c2ccc3c(n2)N(C(=O)NC2CCC2)[C@H]2CCN3C2)ccn1` [(9S)-N-cyclobutyl-5-(2-methylpyridin-4-yl)-1,6,8-triazatricyclo[7.2.1.0 {2,7}]dodeca-2(7),3,5-triene-8-carboxamide], the “TRP Activity (EC1.5)” value (Trp peptide assay) is reported as “B (B (EC1.5 1-25 μM))” and the Emax [5] is reported as greater than 150%.

`Cc1ccncc1-c1ccc2c(n1)N(C(=O)Nc1ccccn1)[C@H]1CCCN2C1` [Example 505] was tested, and the “Tryp AVG EC1.5 (μM)” value [2] was “C (C (EC1.5>25 μM))”.

For `COc1cc(NC(=O)N2c3nc(-c4ccnc(F)c4)ccc3N3CC[C@H]2C3)ncn1` [Example 358], the “Tryp AVG EC1.5 (μM)” value [1] was “C (C (EC1.5>25 μM))”.

With `O=C(Nc1cccnc1)N1c2nc(-c3cncc(C(F)(F)F)c3)ccc2N2CC[C@H]1C2` [Example 556] the “Tryp AVG EC1.5 (μM)” value [2] was “A (A (EC1.5<1 μM))”.

With `O=C(Nc1cccnc1)N1c2nc(-c3cncc(Cl)c3)ccc2N2CCC1CC2` [Example 544] the “Tryp AVG EC1.5 (μM)” value [2] was “B (B (EC1.5 1-25 μM))”.

With `Cc1cc(-c2ccc3c(n2)N(C(=O)Nc2cc4cn[nH]c4cn2)[C@H]2CCN3C2)ccn1` [(9S)-5-(2-methylpyridin-4-yl)-N-{1H-pyrazolo[3,4-c]pyridin-5-yl}-1,6,8-triazatricyclo[7.2.1.0 {2,7}]dodeca-2(7),3,5-triene-8-carboxamide] the “TRP Activity (EC1.5)” value (Trp peptide assay) was “A (A (EC1.5<1 μM))” and the Emax [5] was greater than 150%.

With `Cc1nn(C)cc1-c1ccc2c(n1)N(C(=O)Nc1cccnc1)[C@H]1CCN2C1` [Example 488] the “Tryp AVG EC1.5 (μM)” value [2] was “B (B (EC1.5 1-25 μM))”.

For `O=C(Nc1ccccn1)N1c2nc(-c3cccc(N4CCOCC4)c3)ccc2N2CCC[C@H]1C2` [Example 536], the “Tryp AVG EC1.5 (μM)” value [2] was “B (B (EC1.5 1-25 μM))”.

With `Cc1ccc(-c2ccc3c(n2)N(C(=O)NC2CC(F)(F)C2)[C@H]2CCN3C2)cn1` [(9S)-N-(3,3-difluorocyclobutyl)-5-(6-methylpyridin-3-yl)-1,6,8-triazatricyclo[7.2.1.0 {2,7}]dodeca-2(7),3,5-triene-8-carboxamide] the “TRP Activity (EC1.5)” value (Trp peptide assay) was “B (B (EC1.5 1-25 μM))” and the Emax [5] was greater than 150%.

In the case of `O=C(Nc1cccc(-c2cnco2)c1)N1c2nc(N3CCCN(CC(F)(F)F)CC3)ccc2N2CC[C@H]1C2` [Example 741], the “Tryp AVG EC1.5 (μM)” value [3] is reported as “A (A (EC1.5<1 μM))”.

In the case of `O=C(Nc1ccncn1)N1c2nc(C3CCCC(C(F)(F)F)C3)ccc2N2CC[C@H]1C2` (stereo partly drawn) [Example 98], the “Tryp AVG EC1.5 (μM)” value [6] is reported as “B (B (EC1.5 1-25 μM))”.

`Cc1c(-c2ccc3c(n2)C(C(=O)Nc2ccccn2)[C@H]2CCN3C2)cnn1C` (stereo partly drawn) [Example 531] was tested, and the “Tryp AVG EC1.5 (μM)” value [2] was “B (B (EC1.5 1-25 μM))” and the Emax (Trp mass spectrometry assay, percent maximum fold activation of SIRT1, read-out: Tryp % Fold Act) was greater than 150%.

In the case of `O=C(Nc1nnc(-c2ccccc2)o1)N1c2nc(-c3cccc(C(F)(F)F)c3)ccc2N2CC[C@H]1C2` [Example 719], the “Tryp AVG EC1.5 (μM)” value [3] is reported as “A (A (EC1.5<1 μM))”.

For `Cc1cc(-c2ccc3c(n2)N(C(=O)N2CCCC2)[C@H]2CCN3C2)ccn1` [(9S)-5-(2-methylpyridin-4-yl)-8-[(pyrrolidin-1-yl)carbonyl]-1,6,8-triazatricyclo[7.2.1.0 {2,7}]dodeca-2,4,6-triene], the “TRP Activity (EC1.5)” value (Trp peptide assay) was “C (C (EC1.5>25 μM))” and the Emax [5] was less than 150%.

`O=C(Nc1ccccn1)N1c2nc(N3CCC[C@@H]3C(F)(F)F)ccc2N2CC[C@H]1C2` [(9S)-N-(pyridin-2-yl)-5-[(2R)-2-(trifluoromethyl)pyrrolidin-1-yl]-1,6,8-triazatricyclo[7.2.1.0 {2,7}]dodeca-2(7),3,5-triene-8-carboxamide] was tested, and the “TRP Activity (EC1.5)” value (Trp peptide assay) was “A (A (EC1.5<1 μM))” and the Emax [5] was greater than 150%.

In the case of `NCCCCCC(=O)NCc1cccc(NC(=O)N2c3nc(-c4cccc(C(F)(F)F)c4)ccc3N3CCC[C@H]2C3)c1` [Example 756], the “Tryp AVG EC1.5 (μM)” value [3] is reported as “A (A (EC1.5<1 μM))”.

`O=C(Nc1ccccn1)N1c2nc(-c3cncc(Cl)c3)ccc2N2CCC[C@H]1C2` [Example 406] was tested, and the “Tryp AVG EC1.5 (μM)” value [1] was “A (A (EC1.5<1 μM))”.

With `Cc1c(-c2ccc3c(n2)N(C(=O)Nc2cccnc2)[C@H]2CCN3C2)cnn1C` [Example 489] the “Tryp AVG EC1.5 (μM)” value [2] was “B (B (EC1.5 1-25 μM))”.

In the case of `O=C(Nc1cnccn1)N1c2nc(-c3cccc(C(F)(F)F)c3)ccc2N2C[C@@H](O)[C@H]1C2` [Example 645], the “Tryp AVG EC1.5 (μM)” value [3] is reported as “A (A (EC1.5<1 μM))”.

`Cn1cc(-c2ccc3c(n2)N(C(=O)Nc2cnccn2)[C@H]2CCN3C2)cn1` [(9S)-5-(1-methyl-1H-pyrazol-4-yl)-N-(pyrazin-2-yl)-1,6,8-triazatricyclo[7.2.1.0 {2,7}]dodeca-2(7),3,5-triene-8-carboxamide] was tested, and the “TRP Activity (EC1.5)” value (Trp peptide assay) was “B (B (EC1.5 1-25 μM))” and the Emax [5] was greater than 150%.

In the case of `CCOc1cncc(NC(=O)N2c3nc(-c4ccnc(C)c4)ccc3N3CC[C@H]2C3)n1` [(9S)-N-(6-ethoxypyrazin-2-yl)-5-(2-methylpyridin-4-yl)-1,6,8-triazatricyclo[7.2.1.0 {2,7}]dodeca-2(7),3,5-triene-8-carboxamide], the “TRP Activity (EC1.5)” value (Trp peptide assay) is reported as “A (A (EC1.5<1 μM))” and the Emax [5] is reported as greater than 150%.

In the case of `O=C(Nc1cccnc1)N1c2nc(-c3cccc(C(F)(F)F)c3)ccc2N2CCC1CC2` [Example 485], the “Tryp AVG EC1.5 (μM)” value [2] is reported as “A (A (EC1.5<1 μM))”.

`O=C(NCCN1CCOCC1)N1c2nc(-c3cccc(C(F)(F)F)c3)ccc2N2CC[C@H]1C2` [Example 616] was tested, and the “Tryp AVG EC1.5 (μM)” value [2] was “B (B (EC1.5 1-25 μM))”.

For `N#Cc1cc(-c2ccc3c(n2)N(C(=O)Nc2ccccn2)[C@H]2CCN3C2)ccc1F` [Example 341], the “Tryp AVG EC1.5 (μM)” value [1] was “A (A (EC1.5<1 μM))”.

With `C#CCNc1nccc(NC(=O)N2c3nc(-c4ccc(C5(C(F)(F)F)N=N5)cc4)ccc3N3CC[C@H]2C3)n1` [Example 805] the “Tryp AVG EC1.5 (μM)” value [3] was “B (B (EC1.5 1-25 μM))”.

With `CC(C)(C)OC(=O)NCc1cccc(-c2ccc3c(n2)N(C(=O)Nc2ccncc2)[C@H]2CCN3C2)c1` [Example 794] the “Tryp AVG EC1.5 (μM)” value [3] was “B (B (EC1.5 1-25 μM))” and the Emax [4] was greater than 150%.

In the case of `O=C(Nc1cccnc1)N1c2nc(-c3cnn(C4CCCC4)c3)ccc2N2CC[C@H]1C2` [Example 587], the “Tryp AVG EC1.5 (μM)” value [2] is reported as “B (B (EC1.5 1-25 μM))”.

In the case of `O=C(Nc1nc2ccccc2s1)N1c2nc(-c3cccc(C(F)(F)F)c3)ccc2N2CC[C@H]1C2` [Example 90], the “Tryp AVG EC1.5 (μM)” value [6] is reported as “A (A (EC1.5<1 μM))”.

With `CN1CCCN(c2ccc3c(n2)N(C(=O)Nc2ccncn2)[C@H]2CCCN3C2)CC1` [Example 484] the “Tryp AVG EC1.5 (μM)” value [2] was “C (C (EC1.5>25 μM))”.

`O=C(Nc1ccncn1)N1c2nc(-c3cccc(Cl)c3)ccc2N2CCC1CC2` [Example 534] was tested, and the “Tryp AVG EC1.5 (μM)” value [2] was “B (B (EC1.5 1-25 μM))”.

`Cc1cc(-c2ccc3c(n2)N(C(=O)Nc2ccncn2)[C@H]2CCN3C2)ccn1` [Example 468] was tested, and the “Tryp AVG EC1.5 (μM)” value [2] was “B (B (EC1.5 1-25 μM))”.

For `Cc1ccc(-c2cc(C)c3c(n2)N(C(=O)Nc2ccccn2)[C@H]2CCN3C2)cn1` [(9S)-3-methyl-5-(6-methylpyridin-3-yl)-N-(pyridin-2-yl)-1,6,8-triazatricyclo[7.2.1.0^{2,7}]dodeca-2,4,6-triene-8-carboxamide], the “TRP Activity (EC1.5)” value (Trp peptide assay) was “B (B (EC1.5 1-25 μM))” and the Emax [5] was greater than 150%.

`O=C(Nc1ccccn1)N1c2nc(-c3cccc(C(F)(F)F)c3)ccc2N2CCC[C@H]1C2` [Example 820] was tested, and the “Tryp AVG EC1.5 (μM)” value [3] was “A (A (EC1.5<1 μM))”.

`O=C(Nc1cccc(-c2ccccc2)c1)N1c2nc(-c3cccc(C(F)(F)F)c3)ccc2N2CC[C@H]1C2` [Example 625] was tested, and the “Tryp AVG EC1.5 (μM)” value [3] was “A (A (EC1.5<1 μM))”.

With `CC(=O)N1CCC(c2cccc(NC(=O)N3c4nc(-c5cccc(C(F)(F)F)c5)ccc4N4CC[C@H]3C4)c2)C1` (stereo partly drawn) [Example 635] the “Tryp AVG EC1.5 (μM)” value [3] was “A (A (EC1.5<1 μM))”.

In the case of `O=C(Nc1cccc(-c2cnco2)n1)N1c2nc(-c3cccc(Cl)c3)ccc2N2C[C@@H](O)[C@H]1C2` [Example 693], the “Tryp AVG EC1.5 (μM)” value [3] is reported as “A (A (EC1.5<1 μM))”.
